Experimental data published in patent US6482609B1, “Isolated human EDG-4 receptor and polynucletide encoding said receptor” (priority 1997, dated 2002).
“Also recorded” adds a separate entry of the source.

Columns and labels:
rat edg4 = rat edg4 (Rattus norvegicus, UniProt P47752); test: IL-8 ELISA on COS-1 cells transiently transfected with rat EDG-4; type: cell-based; design: expressed in transfected cells
Method: (§1) A. DEAE/Dextran Cell Suspension Transient Transfection.
(§2) Transfection was done as described in Anal Biochem 218:460 (1994).
(§3) 1) 6 ml RSC was added to 4-50 ml tubes. The following amounts of DNA were added:
(§4) 3) 1.5 ml COS-1 cell suspension (5.5×10^6 cells total) in RSC was added to each tube and incubated for 105 min in 37° C. incubator. Tubes were mixed every 20 min.
(§5) 4) Following incubation, tubes were spun for 5 min, cell pellets were washed with DMEM/F12+10% FBS once and then resuspended in 10 ml media. Cells were plated in 24-well plates at 0.2×10^6 cells/well.
(§6) 500 μl treatment volume was used. Supernatants were microfuged at 14,000 rpm for 10 min., transferred to new eppendorf tubes and stored at −20° C. for future IL-8 ELISA determination.
(§7) The procedure as outlined in Procedure for HeLa Cells (D) was followed, using 50 μl of sample per ELISA determination in duplicate.

human EDG-3 = target: T1, human EDG-3 (Homo sapiens, UniProt Q99500); test: Calcium microfluorimetry in 293-EBNA cells, EDG-3; type: cell-based; settings: EDG-3 transfected cells; 2 μM S1P
T1 construct: expressed in transfected cells; host or cells: 293-EBNA
T1 sequence (Q99500 whole entry): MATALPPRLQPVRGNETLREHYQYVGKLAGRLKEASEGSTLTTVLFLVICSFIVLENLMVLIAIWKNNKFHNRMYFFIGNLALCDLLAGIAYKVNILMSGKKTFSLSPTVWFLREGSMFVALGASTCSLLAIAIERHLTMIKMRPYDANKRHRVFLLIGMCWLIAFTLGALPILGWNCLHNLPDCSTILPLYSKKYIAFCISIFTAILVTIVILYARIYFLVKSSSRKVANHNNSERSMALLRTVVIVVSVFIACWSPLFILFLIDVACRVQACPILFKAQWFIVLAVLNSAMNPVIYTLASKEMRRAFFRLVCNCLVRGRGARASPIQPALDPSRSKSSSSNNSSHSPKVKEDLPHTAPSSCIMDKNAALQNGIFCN
Method: (§8) Transfections were carried out with EDG receptors in 293-EBNA cells as described above, except that no reporter gene vector was included in the DNA mix. Two days after transfection, cells were harvested by trypsinization and plated at a density of 200,000 cells onto poly-D-lysine-coated coverslips in 100 μl of medium containing 0.5% FBS. After briefly allowing cell attachment to take place, 2 ml of medium without FBS was added and the cells were incubated overnight. The next day, cells were loaded with 5 μM fura-2 AM ester (Molecular Probes) for 60 min at RT, then washed and used for calcium microfluorimetry. […] Treatments were applied using a gravity-fed perfusion apparatus. Fluorescence emission was continuously monitored and recorded with PTI 2.060a software and analyzed with Sigma Plot software. Intracellular calcium concentrations were calculated by interpolation on a ratiometric fluorescence curve generated from fura-2 fluorescence in a calcium dilution series.

HL-60 cells [1] = test: IL-8 ELISA on HL-60 cells; type: cell-based, human; settings: 1, 6 or 24 hr, S1P or LPA up to 3 μM, TNF-α 10 ng/ml
Method: Procedure for HL-60 Cells:
Cells: HL-60 (promyelocytic, human) suspension cells
Media: RPMI 1640 medium with 2 mM L-glutamine adjusted to contain 4.5 g/L glucose, 10 mM HEPES, and 1.0 mM sodium pyruvate+10% FBS
1) Cells were plated at a density of 0.25×10^6 cells/ml.
2) Cell pellcts were resuspended in 0.5% FBS media at a density of approximately 1×10^6 cells/ml.
1) Made up all required solutions in 0.5% FBS media (control).
2) 1.4 ml appropriate treatments were added to each well of a 6-well plate.
5) 100 μl cell suspension was added to each well.
7) After the specified time cell supematants were collected into 1.5 ml eppendorf tubes, spun down at 14000 rpm for 5 minutes and stored at −20° C.
D. Refer to Procedure #1 For HeLa Cells (D).

COS-1 cells = test: IL-8 ELISA on control COS-1 cells (empty vector pcDNA3); type: cell-based; settings: COS-1 cells transfected with pcDNA3; S1P 5 μm
Method: as §1, §2, §3, §4, §5, §6, §7

EDG-7 = test: Calcium microfluorimetry in 293-EBNA cells, EDG-7; type: cell-based; settings: 2 and 10 μM, preliminary data
Method: as §8

HeLa cells = test: Cytotoxicity (viable cell count) in HeLa cells; type: cell-based, human; settings: S1P concentrations up to 10 μM
From the text: Follow Procedure #2 For HeLa Cells with the following exceptions: […]

293-EBNA cells = test: IL-8 production in untransfected 293-EBNA cells; type: cell-based
HL-60 cells [2] = test: Cytotoxicity (cell viability) in HL-60 cells; type: cell-based, human
Method: For this purpose, an experiment was conducted to measure cytotoxicity in parallel with IL-8 response. […] Therefore, IL-8 production had to be robust to be observed at 6 hr, while even slight or delayed toxicity would be seen as a loss of viability at 24 hr.

EDG-1 [3] = target: T2, EDG-1 (Homo sapiens, UniProt P21453); test: SRE luciferase reporter (2XSREtk-p4Luc-zeo) in 293-EBNA cells, EDG-1; type: cell-based; design: expressed in transfected cells; host or cells: 293-EBNA; settings: 3 μM, 6 hours
T2 sequence (P21453 whole entry): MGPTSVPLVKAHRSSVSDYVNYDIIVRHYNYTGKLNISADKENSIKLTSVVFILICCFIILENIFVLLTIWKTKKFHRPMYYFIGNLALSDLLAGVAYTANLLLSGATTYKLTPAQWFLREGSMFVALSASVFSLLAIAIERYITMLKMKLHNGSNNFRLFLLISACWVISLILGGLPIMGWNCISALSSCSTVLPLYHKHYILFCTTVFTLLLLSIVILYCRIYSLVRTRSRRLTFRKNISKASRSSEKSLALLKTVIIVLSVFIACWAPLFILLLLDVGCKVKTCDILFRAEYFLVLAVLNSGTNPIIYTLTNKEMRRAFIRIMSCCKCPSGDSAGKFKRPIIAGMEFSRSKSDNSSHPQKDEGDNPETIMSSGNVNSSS

EDG-1 [4] = target: T2, EDG-1; test: NF-κB luciferase reporter in 293-EBNA cells, EDG-1; type: cell-based; design: expressed in transfected cells; host or cells: 293-EBNA; settings: 3 μM, 6 hours
Method: 3) 30 μl Lipofectamine Reagent (Lipofectamine Plus Kit) was diluted in 750 μl DMEM/F12. The diluted Lipofectamine was then combined with the DNA/Plus mixture and incubated at room temperature for 15 min. […] 2) Transfected cells were harvested by trypsinization and 50,000 cells per well were plated in 96-well Blackview plates coated with poly D-lysine (Becton Dickinson Labware, Cat. 40640). No cells were plated in the outside wells of the 96-well plate. […] 1) Media was removed and cells treated with compounds diluted in DMEM/F12 media. […] 2) The cells were treated for 6 hours. 3) Luciferase assay was performed.

[5] = system: Human Umbilical Vein Endothelial Cells (HUVEC); test: IL-8 ELISA on primary cultured HUVEC treated with lysolipids; type: cell-based; settings: 6 hr treatment
Method: Plating, Pretreatment and Treatment of HUVEC
Procedures were followed as detailed above in “Procedure #1 for HeLa Cells” with the following exceptions:
Cells were plated at 20,000 cells/well into 24-well plates. The next day, cells were serum-starved overnight in EBM medium (Clonetics) with 0.5% FBS, and then treated in EBM without FBS for 6 hr with the following lysolipids:
Supematants were collected and IL-8 levels were deternined using ELISA as described previously.

Sequence of rat edg4 (P47752 whole entry): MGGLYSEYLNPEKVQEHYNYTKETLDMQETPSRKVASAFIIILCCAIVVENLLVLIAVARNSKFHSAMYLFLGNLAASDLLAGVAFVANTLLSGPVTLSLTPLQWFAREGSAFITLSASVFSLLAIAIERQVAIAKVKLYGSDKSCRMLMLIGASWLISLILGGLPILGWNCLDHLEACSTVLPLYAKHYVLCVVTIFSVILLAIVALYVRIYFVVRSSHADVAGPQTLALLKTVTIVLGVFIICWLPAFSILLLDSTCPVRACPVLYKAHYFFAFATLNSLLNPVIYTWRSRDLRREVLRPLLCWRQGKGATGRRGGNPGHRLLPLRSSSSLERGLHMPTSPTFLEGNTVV

Row | SMILES | Increase in IL-8 release compared to untreated cells (rat edg4; COS-1 cells transfected with EDG-4 expression plasmid, 5 μm, overnight) [fold] | PTX sensitivity of IL-8 response (rat edg4; EDG-4 transfected COS-1 cells, PTX 50 ng/ml) | Increase in intracellular calcium (human EDG-3) [nM] | IL-8 release (HL-60 cells [1]) | IL-8 response in control cells (COS-1 cells) | Qualitative calcium response (EDG-7) | Cell viability 24 hr after treatment (HeLa cells) | IL-8 production (293-EBNA cells) | Concentration at which toxicity begins (HL-60 cells [2]) [µM] | Increase in luciferase activity (SRE reporter) (EDG-1 [3]) [fold] | Luciferase activity (NF-κB reporter) (EDG-1 [4]) | IL-8 response (qualitative) [5]
1 | CCCCCCCCCCCCC/C=C/[C@@H](O)[C@@H](N)COP(=O)(O)O [S1P, sphingosine-1-phosphate] | 2 | pertussis toxin sensitive | 300 | no such release; also recorded: fail to produce IL-8 | No IL-8 response | None within 20 min | No loss of HeLa viability | no IL-8 production | 10 | 8 | no increase in luciferase activity | –
2 | CCCCCCCCCCCCC/C=C/[C@@H](O)[C@@H](N)COP(=O)([O-])OCC[N+](C)(C)C [SPC, sphingosylphosphorylcholine] | – | – | – | – | – | – | – | – | – | – | – | Marginal increases
